Columns and labels:
Assay type in all cases: in vivo, mouse
[1] = Circulating osteocalcin and insulin levels after osteocalcin delivery (ELISA)
Protocol: First, whether a single intraperitoneal injection of uncarboxylated mouse osteocalcin (osteocalcin) (100 ng/g of body weight) immediately before exercise would improve the exercise capacity of 3 month-old WT mice was tested.
To determine if osteocalcin has the same ability in older mice, 12 and 15 month-old mice that have low circulating osteocalcin levels were injected prior to running with 500 ng/g of body weight of osteocalcin in order to raise their circulating levels substantially. […] This was due to an increase in the phosphorylation of Akt, AMPK and HSL, as well as in glucose uptake, that occurred to a greater extent in oxidative muscles that express Gprc6a at the highest level, than in glycolytic muscles (FIG. 31C-F). Whether chronic delivery of osteocalcin through mini-pumps (90 ng/hour) for 28 days would increase muscle function in 9 month old mice that have the lowest circulating osteocalcin levels was also tested. […] This improved ability to perform exercise was caused in part by an increase in the expression in muscle of the fatty acid transporter Fatp1 and an activation of the Akt pathway (FIG. 31H-).
Serum osteocalcin, PINP, CTX, and insulin levels were measured using ELISA assays. Blood glucose level was measured using an Accu-Check glucometer. Urine 3-MHT was measured as previously described (Aranibar et al., 2011, Anal. Biochem. 410:84-91). […]

muscle = experiment: Gene expression in muscle (qPCR)
Protocol: FIG. 31. Osteocalcin treatment increases muscle function in young and old WT mice. (A-B) Performance during endurance exercise of 3 month-old WT, Gprc6af/f and Gprc6aMck−/− female mice treated with Ocn (n=6-10 per group). (C) Performance during endurance exercise of 12 and 15 month-old WT female mice treated with Ocn (n=6-10 per group). (D) Western blot analysis of Akt phosphorylation (Ser473) in muscles of WT mice injected with Ocn (500 ng/g) after a single bout of exercise. (E) Western blot analysis of AMPK phosphorylation ([…]) in muscles of WT mice injected with Ocn (500 ng/g) after a single bout of exercise. (F) Western blot analysis of HSL phosphorylation (Ser563) in muscles of WT mice injected with Ocn (500 ng/g) after a single bout of exercise. (G) Uptake of ^3H-2-DG in glycolytic (Gly—white quadriceps) and oxidative (Ox—red quadriceps) muscles after a single bout of exercise in 15 month-old WT mice receiving Ocn before running (n=5 per group). (H) Performance during endurance exercise of 10 month-old WT mice receiving Ocn for 28 days (n=7 per group). (I) Expression of Cd36, Fatp1 and Cpt1b in gastrocnemius of 10 month-old WT mice receiving Ocn for 28 days (n=7 per group). (J) Western blot analysis of Akt phosphorylation (Ser473) in muscles of WT mice receiving Ocn for 28 days (n=7 per group). (K) Schematic representation of how osteocalcin signaling in myofibers and IL-6 cooperate to increase exercise capacity.
Serum osteocalcin, PINP, CTX, and insulin levels were measured using ELISA assays. Blood glucose level was measured using an Accu-Check glucometer. Urine 3-MHT was measured as previously described (Aranibar et al., 2011, Anal. Biochem. 410:84-91). Determination of cAMP accumulation was performed using a commercial kit (R&D). For gene expression, 1 μg of total RNA was reverse transcribed into cDNA. qPCR analyses were performed using a SYBER green master mix (Applied Biosciences) and a CFX-Connect real time PCR (Bio-Rad). Relative expression levels of each gene were normalized to that of Hprt or Gapdh. […]

Osteocalcin−/− embryos = experiment: Brain histology, apoptosis and Western blot of Osteocalcin−/− offspring of injected Osteocalcin−/− mothers
Protocol: FIG. 13. Maternal osteocalcin determines spatial learning and memory in adult offspring. (A-F) DLT (A), EPMT (B), OFT (C), FST (D), TST (E), and MWMT (F) performed in 3-month-old Osteocalcin^−/− mice born from Osteocalcin^−/− mothers injected once a day with vehicle or recombinant uncarboxylated osteocalcin (240 ng/day) during pregnancy compared to WT mice. (G) Surface of the lateral ventricle over brain area (%) of E18.5 hippocampi coronal sections of WT embryos originating from WT mothers and Osteocalcin^−/− embryos originating from osteocalcin-injected Osteocalcin^−/− mothers. (H) Number of apoptotic cells (stained by TUNEL assay) of E18.5 hippocampi coronal sections of WT embryos originating from WT mothers and Osteocalcin^−/− embryos originating from Osteocalcin^−/− mothers injected with osteocalcin (240 ng/day). (I) Cresyl violet, NeuN immunofluorescence, and dentate gyrus area (% versus WT) of WT and Osteocalcin^−/− embryos originating from osteocalcin-injected Osteocalcin^−/− mothers. Scale bars=0.5 mm.
Immunofluorescence of whole adult and embryonic brains was performed on […] coronal cryostat slices of tissue fixed with 4% PFA, embedded in cryomatrix (Tissue-Tek) and stored at −80° C. Sections were allowed to dry at room temperature, post-fixed in 4% PFA followed by permeabilization with 0.1% Triton detergent. After room temperature blocking with donkey serum, sections were incubated with anti-Neun antibody (Millipore) overnight at 4° C. Slides were mounted with Fluorogel (Electron Microscopy Sciences).
Cresyl violet staining to visualize brain morphology was carried out by incubating 20 μm cryosections defatted with 1:1 chloroform:ethanol in cresyl violet acetate (1 g/L) overnight. The stain was differentiated using ethanol and xylene and mounted using DPX mounting medium for histology (Sigma).
To assess apoptosis in WT and Osteocalcin^−/− brains, 20 μm cryostat sections were processed using the APOPTAG® Fluorescein Direct In Situ Apoptosis Detection Kit (Millipore) according to manufacturer's protocol. Images were obtained using Leica DM 4000B, and Image J was used to quantify cell number and intensity of staining.
To further evaluate the importance of maternal osteocalcin for the acquisition of spatial learning and memory in adult offspring, pregnant Osteocalcin^−/− mothers from E0.5 to E18.5 were treated with injections, once a day, of osteocalcin (240 ng/day). Osteocalcin was never injected in these females or their pups after delivery. […] Likewise, the number of apoptotic cells was reduced and the number of NeuN positive cells was increased compared to Osteocalcin^−/− embryos originating from Osteocalcin^−/− mothers that were not injected (FIG. 13I-J).

[2] = E18.5 embryos, versus embryos of mothers not injected

With “uncarboxylated osteocalcin: Recombinant uncarboxylated mouse osteocalcin, bacterially produced, purified on glutathione beads and cleaved from the GST subunit by thrombin (YLGASVPSPDPLEPTREQCELNPACDELSDQYGLKTAYKRIYGITI)” the circulating osteocalcin levels ([1]; 3 month-old WT mice, single i.p. injection 100 ng/g) was “increased”, the circulating osteocalcin levels ([1]; mini-pumps 90 ng/hour for 28 days, 9 month old mice) was “increased” and the “expression in muscles of Glut1” value (muscle; at rest or after exercise) was “did not affect”. For the same substance, the “expression in muscles of Glut4” value (muscle; at rest or after exercise) was “did not affect”, the “expression in muscle of Fatp1” value (muscle; mini-pumps 90 ng/hour for 28 days) was “increase” and the cerebral ventricle enlargement (Osteocalcin−/− embryos; E18.5 Osteocalcin−/− embryos, mothers injected 240 ng/day, cresyl violet) was “rescue”. For the same substance, the “Caspase-3 cleaved protein level in the hippocampus” value (Osteocalcin−/− embryos; E18.5 embryos, Western blot, versus mothers not injected) was “decrease”, the “number of NeuN positive cells” value (Osteocalcin−/− embryos; [2]) was “increased” and the “number of apoptotic cells” value (Osteocalcin−/− embryos; [2]) was “reduced”. The “thickness defect in the CA3 and CA4 regions of the hippocampus” value (Osteocalcin−/− embryos; adult Osteocalcin−/− originating from Osteocalcin−/− mothers) was “rescue”.

Source: US11191811B2, “Osteocalcin as a treatment for frailty associated with aging” (THE TRUSTEES OF COLUMBIA UNIVERSITY IN THE CITY OF NEW YORK, priority 2014, dated 2021)
